Source: patent publication EP4104902B1, “COMPOUNDS AND M[…] SAME” (priority 2020, dated 2021)
pIC50: −log10 of the molar value.

System: recombinant rabies virus 1088 strain expressing Gaussia Luciferase (GLuc) (1088/GLuc)
Format: cell-based
Details: read-out: Anti-rabies activity

Structure (SMILES)	pIC50
CC(C)CCNC(=O)[C@]12NC[C@@H]3C[C@H]1CN(CC1CCCCC1)[C@H]2[C@@H]3Cc1ccc(O)cc1 (relative stereo) [IB-648]	4.52 to 5.00
O=C(NCCO)[C@]12NC[C@@H]3C[C@H]1CN(Cc1ccc(F)cc1)[C@H]2[C@@H]3Cc1ccccc1 (relative stereo) [IB-649]	4.52 to 5.00
CC(C)C[C@@H]1[C@@H]2CN[C@@]3(C(=O)NCCO)[C@@H](C2)CN(Cc2ccc(F)cc2)[C@@H]13 (relative stereo) [IB-650]	4.52 to 5.00
CCCCCCNC(=O)[C@]12NC[C@@H]3C[C@H]1CN(Cc1ccc(F)cc1)[C@H]2[C@@H]3Cc1ccc(O)cc1 (relative stereo) [IB-656]	> 5.30
CC(C)CC[C@@H]1[C@@H]2CN[C@@]3(C(=O)NCc4ccc(F)cc4)[C@@H](C2)CN(CCO)[C@@H]13 (relative stereo) [IB-657]	4.52 to 5.00
CC(C)CCN1C[C@@H]2C[C@H]3CN[C@]2(C(=O)NCCO)[C@@H]1[C@@H]3CCc1ccccc1 (relative stereo) [IB-658]	4.52 to 5.00
CC(C)CCN1C[C@@H]2C[C@H]3CN[C@]2(C(=O)NCCO)[C@@H]1[C@@H]3Cc1cccc2ccccc12 (relative stereo) [IB-659]	> 5.30
O=C(NCCO)[C@]12NC[C@@H]3C[C@H]1CN(CC1CCCCC1)[C@H]2[C@@H]3CCc1ccccc1 (relative stereo) [IB-663]	> 5.30
CC(C)CC[C@@H]1[C@@H]2CN[C@@]3(C(=O)NCCO)[C@@H](C2)CN(Cc2ccc(F)cc2)[C@@H]13 (relative stereo) [IB-668]	> 5.30
O=C(NCCO)[C@]12NC[C@@H]3C[C@H]1CN(Cc1ccc(F)cc1)[C@H]2[C@@H]3CCc1ccccc1 (relative stereo) [IB-669]	4.52 to 5.00
O=C(NCCO)[C@]12NC[C@@H]3C[C@H]1CN(Cc1ccccc1)[C@H]2[C@@H]3Cc1ccccc1 (relative stereo) [IB-676]	4.52 to 5.00
CC(C)CCNC(=O)[C@]12NC[C@@H]3C[C@H]1CN(Cc1ccccc1)[C@H]2[C@@H]3Cc1ccc(O)cc1 (relative stereo) [IB-678]	> 5.30
CC(C)CC[C@@H]1[C@@H]2CN[C@@]3(C(=O)NCCO)[C@@H](C2)CN(Cc2ccccc2)[C@@H]13 (relative stereo) [IB-680]	4.52 to 5.00
O=C(NCCO)[C@]12NC[C@@H]3C[C@H]1CN(Cc1ccccc1)[C@H]2[C@@H]3CCc1ccccc1 (relative stereo) [IB-681]	4.52 to 5.00
CC(C)CCNC(=O)[C@]12NC[C@@H]3C[C@H]1CN(CC(C)C)[C@H]2[C@@H]3Cc1ccc(O)cc1 (relative stereo) [IB-684]	4.52 to 5.00
CC(C)CN1C[C@@H]2C[C@H]3CN[C@]2(C(=O)NCCO)[C@@H]1[C@@H]3Cc1cccc2ccccc12 (relative stereo) [IB-687]	4.52 to 5.00
CC(C)CCNC(=O)[C@]12NC[C@@H]3C[C@H]1CN(CC(C)C)[C@H]2[C@@H]3CCc1ccccc1 (relative stereo) [IB-688]	> 5.30
CC(C)CC[C@@H]1[C@@H]2CN[C@@]3(C(=O)NCc4ccccc4)[C@@H](C2)CN(CCC(=O)O)[C@@H]13 (relative stereo) [IB-694]	4.52 to 5.00
CC(C)CCN1C[C@@H]2C[C@H]3CN[C@]2(C(=O)NCCC(N)=O)[C@@H]1[C@@H]3Cc1cccc2ccccc12 (relative stereo) [IB-703]	> 5.30

Structure (SMILES)	pIC50
CC(C)CCN1C[C@@H]2C[C@H]3CN[C@]2(C(=O)NCC(C)C)[C@@H]1[C@@H]3CC(C)C (relative stereo) [IB-753]	> 5.30
CC(C)C[C@@H]1[C@@H]2CN[C@@]3(C(=O)NCc4ccccc4)[C@@H](C2)CN(CCc2ccccc2)[C@@H]13 (relative stereo) [IB-757]	> 5.30
CC(C)CNC(=O)[C@]12NC[C@@H]3C[C@H]1CN(CCc1ccccc1)[C@H]2[C@@H]3Cc1ccccc1 (relative stereo) [IB-759]	> 5.30
CC(C)CNC(=O)[C@]12NC[C@@H]3C[C@H]1CN(CCc1ccccc1)[C@H]2[C@@H]3CC(C)C (relative stereo) [IB-760]	> 5.30
CC(C)CNC(=O)[C@]12NC[C@@H]3C[C@H]1CN(Cc1cccc4ccccc14)[C@H]2[C@@H]3CC(C)C (relative stereo) [IB-762]	> 5.30
CC(C)CNC(=O)[C@]12NC[C@@H]3C[C@H]1CN(Cc1cccc4ccccc14)[C@H]2[C@@H]3Cc1ccc(O)cc1 (relative stereo) [IB-763]	4.52 to 5.00
CC(C)CNC(=O)[C@]12NC[C@@H]3C[C@H]1CN(CC1CCCCC1)[C@H]2[C@@H]3Cc1ccc(O)cc1 (relative stereo) [IB-770]	4.52 to 5.00
O=C(NCc1ccccc1)[C@]12NC[C@@H]3C[C@H]1CN(Cc1ccc(F)cc1)[C@H]2[C@@H]3Cc1ccccc1 (relative stereo) [IB-772]	> 5.30
CC(C)C[C@@H]1[C@@H]2CN[C@@]3(C(=O)NCc4ccccc4)[C@@H](C2)CN(Cc2ccc(F)cc2)[C@@H]13 (relative stereo) [IB-773]	> 5.30
CC(C)CNC(=O)[C@]12NC[C@@H]3C[C@H]1CN(Cc1ccc(F)cc1)[C@H]2[C@@H]3CCc1ccccc1 (relative stereo) [IB-774]	> 5.30
O=C(NCc1ccccc1)[C@]12NC[C@@H]3C[C@H]1CN(Cc1ccccc1)[C@H]2[C@@H]3Cc1cccc2ccccc12 (relative stereo) [IB-777]	> 5.30
CC(C)CCNC(=O)[C@]12NC[C@@H]3C[C@H]1CN(CC(C)C)[C@H]2[C@@H]3Cc1ccccc1 (relative stereo) [IB-780]	> 5.30
CC(C)CN1C[C@@H]2C[C@H]3CN[C@]2(C(=O)NCc2ccccc2)[C@@H]1[C@@H]3Cc1ccc(O)cc1 (relative stereo) [IB-783]	4.52 to 5.00
CC(C)CC[C@@H]1[C@@H]2CN[C@@]3(C(=O)NCc4ccccc4)[C@@H](C2)CN(Cc2ccc(O)cc2)[C@@H]13 (relative stereo) [IB-786]	4.52 to 5.00
CC(C)C[C@@H]1[C@@H]2CN[C@@]3(C(=O)NCc4ccccc4)[C@@H](C2)CN(Cc2ccc(O)cc2)[C@@H]13 (relative stereo) [IB-787]	4.52 to 5.00
CC(C)CN1C[C@H]2C[C@]3(C(=O)NCc4ccccc4)NC[C@H]2[C@H]1[C@H]3Cc1ccccc1 (relative stereo) [IF-1, (3S*, 3aS*, 6S*, 7R*, 7aS*) -N, 7-dibenzyl-1-isobutyloctahydro-6H-3,6-methanopyrrolo[3,2-c]pyridine-6-carboxamide]	4.52 to 5.00
CC(C)CNC(=O)[C@@]12C[C@@H]3CN(Cc4ccccc4)[C@@H]([C@@H]3CN1)[C@H]2Cc1ccccc1 (relative stereo) [IF-6]	4.52 to 5.00
CC(C)CN1C[C@H]2C[C@]3(C(=O)NCc4ccccc4)NC[C@H]2[C@H]1[C@H]3CCc1ccccc1 (relative stereo) [IF-11]	4.52 to 5.00
Cc1cccc(C[C@@H]2[C@@H]3[C@@H]4CN[C@@]2(C(=O)NCc2ccccc2)C[C@@H]4CN3CC(C)C)c1 (relative stereo) [IF-13]	4.52 to 5.00

Structure (SMILES)	pIC50
Cc1ccc(C[C@@H]2[C@@H]3[C@@H]4CN[C@@]2(C(=O)NCc2ccccc2)C[C@@H]4CN3CC(C)C)cc1 (relative stereo) [IF-14]	4.52 to 5.00
Cc1cccc(CNC(=O)[C@@]23C[C@@H]4CN(CC(C)C)[C@@H]([C@@H]4CN2)[C@H]3Cc2ccccc2)c1 (relative stereo) [IF-15]	4.52 to 5.00
CC(C)C[C@@H]1[C@@H]2[C@@H]3CN[C@@]1(C(=O)NCc1ccc(Cl)c(Cl)c1)C[C@@H]3CN2Cc1ccccc1 (relative stereo) [IF-20]	4.52 to 5.00
CC(C)CN1C[C@H]2C[C@]3(C(=O)NCc4ccccc4)NC[C@H]2[C@H]1[C@H]3CC1CCCCC1 (relative stereo) [IF-38]	4.52 to 5.00
O=C(NCc1ccccc1)[C@@]12C[C@@H]3CN(Cc4cccc5ccccc45)[C@@H]([C@@H]3CN1)[C@H]2Cc1ccccc1 (relative stereo) [IF-42]	4.52 to 5.00
CCN1C[C@@H]2[C@H]3CN(CC(C)C)[C@@H]2[C@@H](Cc2ccccc2)[C@]1(C(=O)NCc1ccccc1)C3 (relative stereo) [IF-69]	4.52 to 5.00
CC(C)C[C@@H]1[C@@H]2[C@@H]3CN[C@@]1(C(=O)NCc1cccc4ccccc14)C[C@@H]3CN2CC(N)=O (relative stereo) [IF-81]	4.52 to 5.00
NC(=O)CN1C[C@H]2C[C@]3(C(=O)NCc4cccc5ccccc45)NC[C@H]2[C@H]1[C@H]3Cc1ccccc1 (relative stereo) [IF-82]	4.52 to 5.00
CC(C)CC[C@@H]1[C@@H]2[C@@H]3CN[C@@]1(C(=O)NCc1cccc4ccccc14)C[C@@H]3CN2CC(N)=O (relative stereo) [IF-84]	4.52 to 5.00
NC(=O)CN1C[C@H]2C[C@]3(C(=O)NCc4cccc5ccccc45)NC[C@H]2[C@H]1[C@H]3CCc1ccccc1 (relative stereo) [IF-85]	4.52 to 5.00
CC(C)CC[C@@H]1[C@@H]2[C@@H]3CN[C@@]1(C(=O)NCc1ccc(F)cc1)C[C@@H]3CN2CC(N)=O (relative stereo) [IF-95]	4.52 to 5.00
NC(=O)CN1C[C@H]2C[C@]3(C(=O)NCc4ccc(F)cc4)NC[C@H]2[C@H]1[C@H]3Cc1cccc2ccccc12 (relative stereo) [IF-97]	4.52 to 5.00
CCCCCCNC(=O)[C@@]12C[C@@H]3CN(CC(N)=O)[C@@H]([C@@H]3CN1)[C@H]2CCc1ccccc1 (relative stereo) [IF-109]	4.52 to 5.00
CCCCCCNC(=O)[C@@]12C[C@@H]3CN(CC(N)=O)[C@@H]([C@@H]3CN1)[C@H]2Cc1cccc2ccccc12 (relative stereo) [IF-110]	> 5.30
NC(=O)CN1C[C@H]2C[C@]3(C(=O)NCc4ccc(O)cc4)NC[C@H]2[C@H]1[C@H]3Cc1cccc2ccccc12 (relative stereo) [IF-137]	> 5.30
CC(C)CNC(=O)[C@@]12C[C@@H]3CN(Cc4cccc5ccccc45)[C@@H]([C@@H]3CN1)[C@H]2CCCNC(=N)N (relative stereo) [IF-235]	4.52 to 5.00
N=C(N)NCCC[C@@H]1[C@@H]2[C@@H]3CN[C@@]1(C(=O)NCc1ccccc1)C[C@@H]3CN2Cc1cccc2ccccc12 (relative stereo) [IF-236]	4.52 to 5.00
N=C(N)NCCC[C@@H]1[C@@H]2[C@@H]3CN[C@@]1(C(=O)NCCO)C[C@@H]3CN2Cc1cccc2ccccc12 (relative stereo) [IF-239]	4.52 to 5.00

Same assay, conditions: read-out: IC50

Structure (SMILES)	pIC50
CC(C)CN1C[C@H]2C[C@]3(C(=O)NCc4ccccc4)NC[C@H]2[C@H]1[C@H]3Cc1ccccc1 (relative stereo) [IF-1, (3S*, 3aS*, 6S*, 7R*, 7aS*) -N, 7-dibenzyl-1-isobutyloctahydro-6H-3,6-methanopyrrolo[3,2-c]pyridine-6-carboxamide]	4.90
CC(C)CNC(=O)[C@@]12C[C@@H]3CN(Cc4ccccc4)[C@@H]([C@@H]3CN1)[C@H]2Cc1ccccc1 (relative stereo) [IF-6]	4.79
CC(C)CN1C[C@H]2C[C@]3(C(=O)NCc4ccccc4)NC[C@H]2[C@H]1[C@H]3CCc1ccccc1 (relative stereo) [IF-11]	4.76
Cc1cccc(C[C@@H]2[C@@H]3[C@@H]4CN[C@@]2(C(=O)NCc2ccccc2)C[C@@H]4CN3CC(C)C)c1 (relative stereo) [IF-13]	4.88
Cc1ccc(C[C@@H]2[C@@H]3[C@@H]4CN[C@@]2(C(=O)NCc2ccccc2)C[C@@H]4CN3CC(C)C)cc1 (relative stereo) [IF-14]	4.85
Cc1cccc(CNC(=O)[C@@]23C[C@@H]4CN(CC(C)C)[C@@H]([C@@H]4CN2)[C@H]3Cc2ccccc2)c1 (relative stereo) [IF-15]	4.77
CC(C)C[C@@H]1[C@@H]2[C@@H]3CN[C@@]1(C(=O)NCc1ccc(Cl)c(Cl)c1)C[C@@H]3CN2Cc1ccccc1 (relative stereo) [IF-20]	4.94
CCN1C[C@@H]2[C@H]3CN(CC(C)C)[C@@H]2[C@@H](Cc2ccccc2)[C@]1(C(=O)NCc1ccccc1)C3 (relative stereo) [IF-69]	4.78
